Patent publication US8907153B2, “Adhesive peel-forming formulations for dermal delivery of drugs and methods of using the same” (Nuvo Research Inc., priority 2004, dated 2014)
Where two headings read alike, the source gives them in different places.

Settings: hairless mouse skin, 35° C., mean and SD of three

Average flux (steady-state flux of ropivacaine) (saturated in Glycerin): 1.2 ± 0.7 mcg/cm^2/h
Average flux (steady-state flux of ropivacaine) (saturated in ISA (isostearic acid)): 11 ± 2 mcg/cm^2/h
Average flux (steady-state flux of ropivacaine) (saturated in Mineral Oil): 8.9 ± 0.6 mcg/cm^2/h
Average flux (steady-state flux of ropivacaine) (saturated in Span 20): 26 ± 8 mcg/cm^2/h
Average flux (steady-state flux of ropivacaine) (saturated in Tween 20): 2.4 ± 0.1 mcg/cm^2/h
SMILES: CCCN1CCCC[C@H]1C(=O)Nc1c(C)cccc1C [Ropivacaine]
